Test results from the Kinase Knowledgebase extract (Sharma et al. 2016).
pIC50: −log10 of the molar value.

Biological target: MAPK14 (human) (UniProt Q16539)
Assay: Inhibition of MAPK14 Kinase Activity

Chain of MAPK14 (human) (Q16539 whole entry, looked up): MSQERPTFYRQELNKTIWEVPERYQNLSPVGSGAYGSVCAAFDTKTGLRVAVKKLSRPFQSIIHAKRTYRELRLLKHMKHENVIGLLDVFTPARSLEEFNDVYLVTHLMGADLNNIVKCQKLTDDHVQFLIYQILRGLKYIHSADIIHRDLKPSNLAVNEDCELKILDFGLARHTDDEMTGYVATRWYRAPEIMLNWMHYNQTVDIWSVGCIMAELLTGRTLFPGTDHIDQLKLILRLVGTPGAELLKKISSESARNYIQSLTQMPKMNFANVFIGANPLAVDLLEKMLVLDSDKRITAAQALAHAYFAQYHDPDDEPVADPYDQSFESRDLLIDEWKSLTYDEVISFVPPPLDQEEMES

pIC50, ≥ 6.00:
Cc1cccc([N+](=O)[O-])c1C(=O)NCc1nc(-c2ccc(F)cc2)c(-c2nc(C(=O)NC(C)C)cs2)o1
CC(=O)c1ccc(C(=O)NCc2nc(-c3ccc(F)cc3)c(-c3nc(C(=O)NC(C)C)cs3)o2)cc1
CC(C)NC(=O)c1csc(-c2[nH]c(CN(C)C)nc2-c2ccc(F)cc2)n1
CC(C)NC(=O)c1csc(-c2c(-c3ccc(F)cc3)noc2CN(C)CCc2ccccn2)n1
CC(C)NC(=O)c1csc(-c2c(-c3ccc(F)cc3)n[nH]c2C2CCN(C(=O)c3cccc(O)c3)CC2)n1
Cc1nc(-c2ccc(F)cc2)c(-c2nc(C(=O)NCc3ccc(F)cc3F)cs2)s1
CC(C)NC(=O)c1csc(-c2oc(CNC(=O)CC#N)nc2-c2ccc(F)cc2)n1
Cc1nc(-c2ccc(F)cc2)c(-c2nc(C(=O)NCC(C)c3ccccc3)cs2)s1 (configuration not stated)
CC(C)NC(=O)c1csc(-c2oc(CBr)nc2-c2ccc(F)cc2)n1
CCC(C)NC(=O)n1ccc(-c2c(-c3ccc(Cl)cc3)noc2C)n1 (configuration not stated)
CC(C)NC(=O)c1csc(-c2oc(CNC(=O)c3ccc(F)c([N+](=O)[O-])c3)nc2-c2ccc(F)cc2)n1
Cc1cnc(CNC(=O)c2csc(-c3sc(C)nc3-c3ccc(F)cc3)n2)cn1
CC(C)NC(=O)c1csc(-c2oc(CN3CCN(C(=O)CC4Cc5ccccc5C4)CC3)nc2-c2ccc(F)cc2)n1
CC(=O)N1CCC(c2[nH]nc(-c3ccc(F)cc3)c2-c2nc(C(=O)NC(C)C)cs2)CC1
CC(C)NC(=O)c1csc(-c2oc(CN3CCN(C(=O)C4CCCCC4)CC3)nc2-c2ccc(F)cc2)n1
CCOc1ccc2ccccc2c1C(=O)N1CCN(Cc2nc(-c3ccc(F)cc3)c(-c3nc(C(=O)NC(C)C)cs3)o2)CC1
Cc1nc(-c2ccc(F)cc2)c(-c2nc(C(=O)NCc3ccc(C(F)(F)F)cc3)cs2)s1
COCCOCC(=O)N1CCC(c2[nH]nc(-c3ccc(F)cc3)c2-c2nc(C(=O)NC(C)C)cs2)CC1
COc1ccc(NC(=O)c2csc(-c3sc(C)nc3-c3ccc(F)cc3)n2)c(C)c1
Cc1nc(-c2ccc(F)cc2)c(-c2nc(C(=O)NCc3ccco3)cs2)s1
CC(C)NC(=O)c1csc(-c2oc(CNC(C)C(C)C)nc2C2=CC=C(F)OC2)n1 (configuration not stated)
CC(=O)NCC(=O)NCc1nc(-c2ccc(F)cc2)c(-c2nc(C(=O)NC(C)C)cs2)o1
CC(C)Cc1ccc(C(C)C(=O)N2CCN(Cc3nc(-c4ccc(F)cc4)c(-c4nc(C(=O)NC(C)C)cs4)o3)CC2)cc1 (configuration not stated)
O=C(NCc1cccnc1)c1csc(-c2c(-c3ccc(F)cc3)n[nH]c2C2CCNCC2)n1
CC(C)NC(=O)c1csc(-c2c(-c3ccc(F)cc3)n[nH]c2C2CCN(C(=O)CO)CC2)n1
CC(C)NC(=O)c1csc(-c2oc(CNC(=O)c3cccc(C#N)c3)nc2-c2ccc(F)cc2)n1
Cc1nc(-c2ccc(F)cc2)c(-c2nc(C(=O)NCc3ccccc3OC(F)(F)F)cs2)s1
COc1ccc(C(=O)N2CCN(Cc3nc(-c4ccc(F)cc4)c(-c4nc(C(=O)NC(C)C)cs4)o3)CC2)c(OC)c1OC
Cc1nc(-c2ccc(F)cc2)c(-c2nc(C(=O)NCc3ccc4c(c3)OCO4)cs2)s1
Cc1cccc(C(=O)N2CCN(Cc3nc(-c4ccc(F)cc4)c(-c4nc(C(=O)NC(C)C)cs4)o3)CC2)c1O
CC(C)NC(=O)c1csc(-c2oc(CNC(=O)C=Cc3cccc(O)c3)nc2-c2ccc(F)cc2)n1
CC(=O)N1CCC(n2cnc(-c3ccc(Cl)cc3)c2-c2nc(C(=O)NC(C)C)cs2)CC1
CC(C)NC(=O)c1csc(-c2oc(CNC(=O)C(Cc3ccccc3)NC(=O)OC(C)(C)C)nc2-c2ccc(F)cc2)n1 (configuration not stated)
CNC(=O)c1csc(-c2c(-c3ccc(F)cc3)n[nH]c2C2CCNCC2)n1
Cc1onc(-c2ccc(Cl)cc2)c1-c1ccn(C(=O)NCCO)n1
CC(C)NC(=O)c1csc(-c2oc(CN3CCN(C(=O)C=O)CC3)nc2-c2ccc(F)cc2)n1
CC(C)NC(=O)c1csc(-c2oc(CNC(=O)c3ccccc3[N+](=O)[O-])nc2-c2ccc(F)cc2)n1
COc1ccc(Br)c(C(=O)NCc2nc(-c3ccc(F)cc3)c(-c3nc(C(=O)NC(C)C)cs3)o2)c1
CC(C)NC(=O)c1csc(-c2c(-c3ccc(F)cc3)n[nH]c2C2CCN(C(=O)C(O)CCl)CC2)n1 (configuration not stated)
CCOC(=O)CC1C(=O)NCCN1C(=O)c1csc(-c2sc(C)nc2-c2ccc(F)cc2)n1 (configuration not stated)
Cc1nc(-c2ccc(F)cc2)c(-c2nc(C(=O)NCC3CC3)cs2)s1
COc1ccc(-c2ccccc2)cc1NCc1onc(-c2ccc(F)cc2)c1-c1nc(C(=O)NC(C)C)cs1
CC(C)NC(=O)c1csc(-c2c(-c3ccc(F)cc3)n[nH]c2C2CCN(C(=O)C(F)(F)F)CC2)n1
CC(C)NC(=O)c1csc(-c2oc(CNC(=O)c3ccc(C=O)cc3)nc2-c2ccc(F)cc2)n1
Cc1c(C(=O)N2CCC(c3[nH]nc(-c4ccc(F)cc4)c3-c3nc(C(=O)NC(C)C)cs3)CC2)oc2ccccc12
CC(C)NC(=O)c1csc(-c2oc(CNC(=O)c3cc(Cl)ccc3Cl)nc2-c2ccc(F)cc2)n1
CC(C)NC(=O)c1csc(-c2oc(CNC3CCN(Cc4ccccc4)C3)nc2-c2ccc(F)cc2)n1 (configuration not stated)
Cc1nc(-c2ccc(F)cc2)c(-c2nc(C(=O)NC3CCCCC3C)cs2)s1 (configuration not stated)
CNC(=O)c1csc(-c2sc(C)nc2-c2ccc(F)cc2)n1
Cc1nc(-c2ccc(F)cc2)c(-c2nc(C(=O)NCCc3ccc(S(N)(=O)=O)cc3)cs2)s1
CC(C)NC(=O)c1csc(-c2c(-c3ccc(F)cc3)n[nH]c2C2CCN(C(=O)C(C)O)CC2)n1 (configuration not stated)
CC(C)NC(=O)c1csc(-c2oc(CNC(=O)c3c4ccccc4cc4ccccc34)nc2-c2ccc(F)cc2)n1
CC(C)NC(=O)c1csc(-c2c(-c3ccc(F)cc3)n[nH]c2C2CCN(C(=O)c3ccccn3)CC2)n1
COc1ccc(C=CC(=O)NCc2nc(-c3ccc(F)cc3)c(-c3nc(C(=O)NC(C)C)cs3)o2)cc1O
COc1cc(C(=O)NCc2nc(-c3ccc(F)cc3)c(-c3nc(C(=O)NC(C)C)cs3)o2)cc(OC)c1O
COC[C@H]1CCCN1C(=O)c1csc(-c2sc(C)nc2-c2ccc(F)cc2)n1
CC(C)NC(=O)c1csc(-c2oc(CNC(=O)c3ccncc3Cl)nc2-c2ccc(F)cc2)n1
